From publication PMC7749613 (Journal of Cachexia, Sarcopenia and Muscle, 2020)
“And” between values parts separate entries of the source, which are not always exact repeats. Equal entries are not always repeated.

Legend:
OCT2 = molecular target: T1, OCT2 (Homo sapiens, UniProt O15244); assay: Cellular uptake in HEK293/OCT2‐transfected versus mock cells; format: in vitro ADME; conditions: OCT2, at 5.0 min
T1 construct: host or cells: HEK293
T1 sequence (O15244 1-555): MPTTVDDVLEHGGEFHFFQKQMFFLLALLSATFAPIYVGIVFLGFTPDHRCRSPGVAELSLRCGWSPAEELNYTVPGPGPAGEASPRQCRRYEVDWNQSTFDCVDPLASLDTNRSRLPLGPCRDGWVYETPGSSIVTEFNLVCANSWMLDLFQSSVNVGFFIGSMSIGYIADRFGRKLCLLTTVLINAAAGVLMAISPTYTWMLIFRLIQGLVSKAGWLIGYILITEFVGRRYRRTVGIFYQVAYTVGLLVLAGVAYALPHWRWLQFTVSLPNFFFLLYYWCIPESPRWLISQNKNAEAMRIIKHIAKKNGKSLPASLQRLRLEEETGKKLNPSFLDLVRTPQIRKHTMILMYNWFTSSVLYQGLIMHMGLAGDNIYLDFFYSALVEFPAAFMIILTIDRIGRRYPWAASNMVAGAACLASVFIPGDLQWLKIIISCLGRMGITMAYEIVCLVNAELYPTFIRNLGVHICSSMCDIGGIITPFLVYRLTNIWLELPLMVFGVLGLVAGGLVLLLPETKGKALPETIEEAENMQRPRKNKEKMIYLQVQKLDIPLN
Experimental: (§4) Cells were then washed three times × 1.0 mL each with pre‐warmed Hank's Balanced Salt Solution (HBSS) buffer. A 0.5 mL aliquot of uptake buffer [HBSS plus 10 mM 4‐(2‐hydroxyethyl)‐1‐piperazineethanesulfonic acid (HEPES), pH 7.4], containing the radiolabelled prototypical substrate and mannitol, was then incubated for various times up to 60 min to determine the optimal incubation time for subsequent experiments (i.e. time of sampling during linear uptake conditions). At the designated times, 1.0 mL of ice‐cold HBSS buffer was added to stop uptake after which the cells were rinsed three times with 1.0 mL with ice‐cold HBSS. Hyamine hydroxide (0.33 mL) was then added to each well to lyse the cells. The cells were transferred into a scintillation vial and mixed with 6.0 mL of cytosine scintillation cocktail. Radioactivity of the solubilized cells was determined with a dual‐channel liquid scintillation counter (Beckman LS 6000; Beckman Coulter Inc., Fullerton, CA) and the protein quantified by a bicinchoninic acid protein assay kit (Pierce Biotechnology; Rockford, IL).

human P‐gp (ABCB1, MDR1) = molecular target: T2, human P‐gp (ABCB1, MDR1) (Homo sapiens, UniProt P08183); assay: Transepithelial transport of digoxin (±TCMCB07) in MDCKII/MDR1 cells; format: in vitro ADME; conditions: MDCKII/MDR1, digoxin alone
T2 construct: host or cells: MDCKII
Experimental: (§1) Cells were then washed three times, each with 0.5 mL pre‐warmed HBSS buffer. […] The cells were then incubated for various times up to 60 min. […] At the designated times, 15 μL of apical buffer and 50 μL of basolateral buffer were sampled. Once all the samples were collected, 0.5 mL of ice‐cold HBSS buffer was added to the well to stop transport after which the cells were rinsed three times with 0.5 mL of ice‐cold HBSS. The filters with monolayers were then detached from the chamber and placed in a scintillation vial, and the cells were lysed with 0.33 mL hyamine hydroxide.
(§2) The permeability of digoxin and rosuvastatin (prototypical substrates for MDR1 and BCRP, respectively) was determined by the following ^18 : (4) Papp=CR·VR/CD^o·A·∆Δt, where Papp is the apparent permeability, CR is the concentration of substrate in the receiver chamber, CD^o is the concentration of substrate in the donor chamber at time zero, VR is the volume of buffer in the receiver chamber, A is the surface area of the insert filter membrane, and ∆t is the time over which permeability is measured.

[1] = Transepithelial transport in MDCKII mock cells; format: in vitro ADME; conditions: dog, MDCK
Experimental: as §1, §2

BCRP (ABCG2) = molecular target: T3, BCRP (ABCG2) (Homo sapiens, UniProt Q9UNQ0); assay: Transepithelial transport of rosuvastatin (±TCMCB07) in MDCKII/BCRP cells; format: in vitro ADME; conditions: human, pH 7.4, MDCKII/BCRP, rosuvastatin alone
T3 construct: host or cells: MDCKII
T3 sequence (Q9UNQ0 1-655): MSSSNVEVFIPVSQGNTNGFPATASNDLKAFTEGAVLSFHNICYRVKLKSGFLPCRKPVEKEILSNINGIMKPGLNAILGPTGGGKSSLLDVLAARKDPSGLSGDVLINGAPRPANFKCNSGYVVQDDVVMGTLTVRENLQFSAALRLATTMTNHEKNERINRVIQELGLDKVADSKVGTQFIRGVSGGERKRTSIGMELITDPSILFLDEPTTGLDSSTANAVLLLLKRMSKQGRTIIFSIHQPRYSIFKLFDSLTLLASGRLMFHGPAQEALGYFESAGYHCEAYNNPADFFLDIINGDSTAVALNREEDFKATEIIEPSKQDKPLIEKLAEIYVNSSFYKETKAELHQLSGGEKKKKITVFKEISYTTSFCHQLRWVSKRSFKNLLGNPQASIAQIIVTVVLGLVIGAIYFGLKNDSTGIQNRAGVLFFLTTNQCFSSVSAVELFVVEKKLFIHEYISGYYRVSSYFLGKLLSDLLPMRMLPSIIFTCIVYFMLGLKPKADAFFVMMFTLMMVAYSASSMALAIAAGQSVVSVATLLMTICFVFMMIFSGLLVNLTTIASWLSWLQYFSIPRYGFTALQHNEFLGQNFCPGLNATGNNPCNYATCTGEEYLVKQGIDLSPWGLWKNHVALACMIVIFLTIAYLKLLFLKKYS
Experimental: as §1, §2
A similar analysis can be performed for rosuvastatin by substituting ERRos for ERDig and ERRos+T for ERDig+T in Eqn 6.

OAT3 = molecular target: T4, OAT3 (Homo sapiens, UniProt Q8TCC7); assay: Cellular uptake in HEK293/OAT3‐transfected versus mock cells; format: in vitro ADME; conditions: OAT3, at 5.0 min
T4 construct: host or cells: HEK293
T4 sequence (Q8TCC7 1-542): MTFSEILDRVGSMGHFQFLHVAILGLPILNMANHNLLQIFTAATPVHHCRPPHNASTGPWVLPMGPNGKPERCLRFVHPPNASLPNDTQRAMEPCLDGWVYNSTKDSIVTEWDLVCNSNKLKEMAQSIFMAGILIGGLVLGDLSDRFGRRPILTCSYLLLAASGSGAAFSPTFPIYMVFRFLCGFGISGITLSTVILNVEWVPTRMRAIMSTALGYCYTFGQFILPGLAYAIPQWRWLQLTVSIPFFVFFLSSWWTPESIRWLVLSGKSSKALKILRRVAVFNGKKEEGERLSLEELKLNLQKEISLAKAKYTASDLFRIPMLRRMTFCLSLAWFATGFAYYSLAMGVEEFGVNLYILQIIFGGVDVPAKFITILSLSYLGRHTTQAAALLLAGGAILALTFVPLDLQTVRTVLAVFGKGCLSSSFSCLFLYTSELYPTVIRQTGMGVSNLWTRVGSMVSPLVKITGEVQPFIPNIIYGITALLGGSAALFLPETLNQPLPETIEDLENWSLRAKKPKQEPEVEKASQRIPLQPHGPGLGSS
Experimental: as §4

OATP2B1 = molecular target: T5, OATP2B1 (Homo sapiens, UniProt O94956); assay: Cellular uptake in HEK293/OATP2B1‐transfected versus mock cells; format: in vitro ADME; conditions: OATP2B1, at 1.5 min
T5 construct: host or cells: HEK293
T5 sequence (O94956 1-709): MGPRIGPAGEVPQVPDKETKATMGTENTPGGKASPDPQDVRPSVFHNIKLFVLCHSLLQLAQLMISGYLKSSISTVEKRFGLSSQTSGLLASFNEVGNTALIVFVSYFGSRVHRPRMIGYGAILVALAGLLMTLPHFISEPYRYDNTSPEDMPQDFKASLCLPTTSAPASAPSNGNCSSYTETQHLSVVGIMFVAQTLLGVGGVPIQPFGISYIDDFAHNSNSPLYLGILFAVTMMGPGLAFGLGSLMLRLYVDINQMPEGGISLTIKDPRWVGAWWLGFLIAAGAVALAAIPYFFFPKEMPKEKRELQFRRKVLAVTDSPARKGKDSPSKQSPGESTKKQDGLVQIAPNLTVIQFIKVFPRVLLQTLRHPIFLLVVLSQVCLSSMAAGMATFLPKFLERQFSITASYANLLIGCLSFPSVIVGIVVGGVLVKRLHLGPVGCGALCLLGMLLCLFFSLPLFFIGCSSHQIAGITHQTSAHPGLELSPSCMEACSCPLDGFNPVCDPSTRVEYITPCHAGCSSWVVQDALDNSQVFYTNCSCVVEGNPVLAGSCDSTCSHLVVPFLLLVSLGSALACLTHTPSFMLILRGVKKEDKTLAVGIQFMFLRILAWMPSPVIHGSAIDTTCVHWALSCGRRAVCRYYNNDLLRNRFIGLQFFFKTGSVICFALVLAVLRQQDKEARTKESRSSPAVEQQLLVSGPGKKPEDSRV
Experimental: as §4

MATE2‐K = MATE2‐K (Homo sapiens, UniProt Q86VL8); assay: Cellular uptake in HEK293/MATE2‐K‐transfected versus mock cells; format: in vitro ADME; design: host or cells: HEK293; conditions: at 2.0 min
Experimental: (§3) However, for these studies, a different incubation buffer was used (145 mM NaCl, 3 mM KCl, 1 mM CaCl2, 0.5 mM MgCl2, 5 mM glucose, and 5 mM HEPES, pH 7.4). ^13 Moreover, intracellular acidification was achieved by preincubating the cells in buffer containing 30 mM ammonium chloride for 20 min at 37°C. […] Radioactivity and protein measurements were performed as described previously.

MATE1 = molecular target: T6, MATE1 (Homo sapiens, UniProt Q96FL8); assay: Cellular uptake in HEK293/MATE1‐transfected versus mock cells; format: in vitro ADME; design: host or cells: HEK293; conditions: MATE1, at 2.0 min
T6 sequence (Q96FL8 1-570): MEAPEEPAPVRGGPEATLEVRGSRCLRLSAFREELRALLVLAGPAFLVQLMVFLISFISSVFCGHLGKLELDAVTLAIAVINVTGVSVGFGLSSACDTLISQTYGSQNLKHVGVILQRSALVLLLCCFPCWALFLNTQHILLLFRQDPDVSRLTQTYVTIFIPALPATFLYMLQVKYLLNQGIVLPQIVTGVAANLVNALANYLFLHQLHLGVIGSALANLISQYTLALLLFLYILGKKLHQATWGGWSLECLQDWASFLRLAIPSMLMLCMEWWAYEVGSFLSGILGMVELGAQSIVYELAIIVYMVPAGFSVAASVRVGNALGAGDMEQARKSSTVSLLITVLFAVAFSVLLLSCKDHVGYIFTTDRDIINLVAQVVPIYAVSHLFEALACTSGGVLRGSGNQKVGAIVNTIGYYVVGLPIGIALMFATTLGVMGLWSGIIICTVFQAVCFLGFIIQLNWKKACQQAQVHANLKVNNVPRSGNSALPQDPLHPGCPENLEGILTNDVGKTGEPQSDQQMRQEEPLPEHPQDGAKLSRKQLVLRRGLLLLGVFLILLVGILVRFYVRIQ
Experimental: as §3

[2] = In vivo mass balance study (urinary and faecal recovery) in mice
Experimental: Each mouse was then placed in a metabolic cage for 24 h, along with food and water, and the urine and faeces were collected. The metabolic cage was washed several times, after which 100 μL aliquots of diluted urine and faeces was placed in separate vials. Radioactivity measurements were then performed as described previously. All animal procedures were approved by the Institutional Animal Care and Use Committee at the University of Michigan, Ann Arbor.

[3] = table values multiplied ×10^6, cm/s

T2 sequence (P08183 whole entry): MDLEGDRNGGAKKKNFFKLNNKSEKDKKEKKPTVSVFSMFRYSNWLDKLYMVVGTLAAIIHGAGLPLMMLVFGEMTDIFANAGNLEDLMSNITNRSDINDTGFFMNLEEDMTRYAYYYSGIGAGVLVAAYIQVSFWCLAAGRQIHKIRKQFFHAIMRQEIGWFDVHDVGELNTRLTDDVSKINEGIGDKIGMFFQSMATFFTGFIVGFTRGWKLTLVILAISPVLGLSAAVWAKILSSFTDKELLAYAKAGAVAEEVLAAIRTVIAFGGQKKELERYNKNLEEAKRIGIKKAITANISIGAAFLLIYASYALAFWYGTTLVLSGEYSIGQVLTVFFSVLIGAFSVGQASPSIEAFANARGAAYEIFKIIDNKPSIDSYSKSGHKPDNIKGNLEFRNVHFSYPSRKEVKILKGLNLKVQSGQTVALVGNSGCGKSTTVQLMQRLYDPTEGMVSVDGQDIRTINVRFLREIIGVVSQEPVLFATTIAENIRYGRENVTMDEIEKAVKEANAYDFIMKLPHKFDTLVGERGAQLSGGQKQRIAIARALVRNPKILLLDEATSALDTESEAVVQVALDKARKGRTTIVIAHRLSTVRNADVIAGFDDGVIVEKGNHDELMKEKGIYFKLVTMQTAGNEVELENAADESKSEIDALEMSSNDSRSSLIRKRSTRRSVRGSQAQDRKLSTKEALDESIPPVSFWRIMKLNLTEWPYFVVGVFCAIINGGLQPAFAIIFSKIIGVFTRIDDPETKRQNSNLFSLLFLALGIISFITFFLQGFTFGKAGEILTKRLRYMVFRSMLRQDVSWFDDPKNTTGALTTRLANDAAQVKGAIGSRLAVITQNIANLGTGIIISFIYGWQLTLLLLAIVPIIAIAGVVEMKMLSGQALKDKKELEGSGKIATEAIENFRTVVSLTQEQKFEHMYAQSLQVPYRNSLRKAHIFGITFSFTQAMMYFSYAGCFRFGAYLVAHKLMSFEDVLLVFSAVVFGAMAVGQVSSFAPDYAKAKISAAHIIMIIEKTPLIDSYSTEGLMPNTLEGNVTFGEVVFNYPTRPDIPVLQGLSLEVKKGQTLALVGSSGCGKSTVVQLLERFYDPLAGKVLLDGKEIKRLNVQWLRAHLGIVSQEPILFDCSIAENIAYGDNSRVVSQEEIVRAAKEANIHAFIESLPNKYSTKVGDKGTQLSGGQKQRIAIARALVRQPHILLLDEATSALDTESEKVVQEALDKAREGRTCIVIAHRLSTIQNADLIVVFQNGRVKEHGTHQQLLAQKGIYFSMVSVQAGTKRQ
MATE2‐K, sequence (Q86VL8 1-566 isoform Q86VL8-3): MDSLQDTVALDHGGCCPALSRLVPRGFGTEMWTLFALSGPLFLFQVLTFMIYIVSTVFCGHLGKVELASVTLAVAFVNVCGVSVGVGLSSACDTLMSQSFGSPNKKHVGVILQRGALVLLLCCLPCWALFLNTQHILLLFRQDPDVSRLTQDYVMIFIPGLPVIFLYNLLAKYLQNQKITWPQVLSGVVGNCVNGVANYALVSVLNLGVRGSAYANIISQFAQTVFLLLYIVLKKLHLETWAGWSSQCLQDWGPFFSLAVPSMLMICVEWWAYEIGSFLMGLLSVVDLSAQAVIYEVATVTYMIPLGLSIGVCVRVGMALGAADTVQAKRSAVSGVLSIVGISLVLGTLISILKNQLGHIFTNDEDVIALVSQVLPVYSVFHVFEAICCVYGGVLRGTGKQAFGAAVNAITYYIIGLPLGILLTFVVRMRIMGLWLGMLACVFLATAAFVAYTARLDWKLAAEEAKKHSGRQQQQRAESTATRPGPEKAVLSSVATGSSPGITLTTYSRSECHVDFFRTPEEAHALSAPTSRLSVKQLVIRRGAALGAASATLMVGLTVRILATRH

**Q.** With C[n+]1ccc(-c2ccccc2)cc1 [1‐methyl‐4‐phenylpyridinium] as the compound, how does the “mean enhancement of uptake (transfected/mock)” value (OCT2) read?
**A.** 373

**Q.** What does the source list for C[C@H]1O[C@@H](O[C@H]2[C@@H](O)C[C@H](O[C@H]3[C@@H](O)C[C@H](O[C@H]4CC[C@@]5(C)[C@H](CC[C@@H]6[C@@H]5C[C@@H](O)[C@]5(C)[C@@H](C7=CC(=O)OC7)CC[C@]65O)C4)O[C@@H]3C)O[C@@H]2C)C[C@H](O)[C@@H]1O [Digoxin, digoxin]?
**A.** Efflux ratio of digoxin, Papp B to A/Papp A to B (human P‐gp (ABCB1, MDR1)): 24.2 ± 7.3; Papp (A to B) of digoxin (human P‐gp (ABCB1, MDR1); [3]): 1.1 ± 0.3 ×10^−6 cm/s; Papp (B to A) of digoxin (human P‐gp (ABCB1, MDR1); [3]): 22.4 ± 4.0 ×10^−6 cm/s; efflux ratio at 38 nM ([1]; pH 7.4, read-out: mean efflux ratio of digoxin): 4.5; Papp A→B at 38 nM ([1]; pH 7.4, read-out: mean permeability of digoxin (A to B)): 6.3 ×10⁻⁶ cm/s; Papp B→A at 38 nM ([1]; pH 7.4, read-out: mean permeability of digoxin (B to A)): 20.8 ×10⁻⁶ cm/s

**Q.** What does the source list for CC(C)c1nc(N(C)S(C)(=O)=O)nc(-c2ccc(F)cc2)c1/C=C/[C@@H](O)C[C@@H](O)CC(=O)O [Rosuvastatin, rosuvastatin]?
**A.** efflux ratio at 21 nM ([1]; pH 7.4, read-out: mean efflux ratio of rosuvastatin): 3.1; Papp A→B at 21 nM ([1]; pH 7.4, read-out: mean permeability of rosuvastatin (A to B)): 18 ×10⁻⁶ cm/s; Papp B→A at 21 nM ([1]; pH 7.4, read-out: mean permeability of rosuvastatin (B to A)): 55 ×10⁻⁶ cm/s; efflux ratio at 21 nM (BCRP (ABCG2); read-out: Efflux ratio of rosuvastatin, Papp B to A/Papp A to B): 7 ± 0.3; Papp A→B at 21 nM (BCRP (ABCG2); [3]): 11 ± 0.1 ×10⁻⁶ cm/s; Papp B→A at 21 nM (BCRP (ABCG2); [3]): 76.8 ± 4.1 ×10⁻⁶ cm/s

**Q.** With C[C@]12CC[C@@H]3c4ccc(OS(=O)(=O)O)cc4CC[C@H]3[C@@H]1CCC2=O [estrone 3‐sulfate] as the compound, how does the “mean enhancement of uptake (transfected/mock)” value (OAT3) read?
**A.** 470

**Q.** And the “mean enhancement of uptake (transfected/mock)” value (OATP2B1)?
**A.** 63.5

**Q.** Which “mean enhancement of uptake (transfected/mock)” value (MATE2‐K) does the source give for CC[N+](CC)(CC)CC [tetraethylammonium] here?
**A.** 46.7

**Q.** What about the “mean enhancement of uptake (transfected/mock)” value (MATE1) of the same compound?
**A.** 122

**Q.** With inulin as the compound, how does the “% Urinary recovery, intravenous inulin” value ([2]; individual mice, [3H]inulin iv bolus given with intravenous TCMCB07, 24 h collection) read?
**A.** 104% and 93.2% and 95.1%

**Q.** And the “% Urinary recovery, intravenous inulin” value ([2]; individual mice, [3H]inulin iv bolus given with oral TCMCB07, 24 h collection (mouse 2: 48 h))?
**A.** 106% and 100% and 107%

**Q.** And the “% Urinary recovery, intravenous inulin” value ([2]; mean of 3 mice, given with intravenous TCMCB07)?
**A.** 97.4%

**Q.** And the “% Urinary recovery, intravenous inulin” value ([2]; mean of 4 mice, given with oral TCMCB07)?
**A.** 105%
